Assay results reported in patent US9376391B2, “Difluoromethyl-nicotinic-tetrahydronaphthyl carboxamides as fungicides” (BAYER CROPSCIENCE AKTIENGESELLSCHAFT, priority 2012, dated 2016).

Key:
[1] = tested on: Alternaria brassicae; assay: In vivo preventive test on Alternaria brassicae (leaf spot on radish); conditions: spray, graded 6 days after contamination vs control plants
Description: In Vivo Preventive Test on Alternaria brassicae (Leaf Spot on Radish)
(§1) The active ingredients tested are prepared by homogenization in a mixture of acetone/tween/DMSO, and then diluted with water to obtain the desired active material concentration.
Radish plants (“Pernod Clair” variety), sown in starter cups on a 50/50 peat soil-pozzolana substrate and grown at 17° C., are treated at the cotyledon stage by spraying with the active ingredient prepared as described above. Plants, used as controls, are treated with the mixture of acetone/tween/DMSO/water not containing the active material.
After 24 hours, the plants are contaminated by spraying the cotyledons with an aqueous suspension of Alternaria brassicae spores (50 000 spores per ml). The spores are collected from a 15-day-old culture. The contaminated radish plants are incubated at 20° C. and at 100% relative humidity.
Grading (% of efficacy) is carried out 6 days after the contamination, in comparison with the control plants.

[2] = tested on: Septoria tritici; assay: In vivo preventive test on Septoria tritici (leaf spot on wheat); conditions: preventive spray, wheat plants, grading 24 days after contamination
Description: In Vivo Preventive Test on Septoria tritici (Leaf Spot on Wheat)
as §1
Wheat plants (“Scipion” variety), sown in starter cups on a 50/50 peat soil-pozzolana substrate and grown at 22° C., are treated at the 1-leaf stage (10 cm height) by spraying with the active ingredient prepared as described above. Plants, used as controls, are treated with the mixture of acetone/tween/DMSO/water not containing the active material.
After 24 hours, the plants are contaminated by spraying the leaves with an aqueous suspension of cryopreserved Septoria tritici spores (500 000 spores per ml). The contaminated wheat plants are incubated for 72 hours at 18° C. and at 100% relative humidity, and then for 21 days at 90% relative humidity.
Grading (% of efficacy) is carried out 24 days after the contamination, in comparison with the control plants.

[3] = tested on: Pyrenophora teres; assay: In vivo preventive test on Pyrenophora teres (net blotch on barley); conditions: for Eff. %: barley, spray, graded 14 days after contamination vs control plants
Description: In Vivo Preventive Test on Pyrenophora teres (Net Blotch on Barley)
as §1
Barley plants (“Plaisant” variety), sown in starter cups on a 50/50 peat soil-pozzolana substrate and grown at 22° C., are treated at the 1-leaf stage (10 cm height) by spraying with the active ingredient prepared as described above. Plants, used as controls, are treated with the mixture of acetone/tween/DMSO/water not containing the active material.
After 24 hours, the plants are contaminated by spraying the leaves with an aqueous suspension of Pyrenophora teres spores (12 000 spores per ml). The spores are collected from a 12-day-old culture. The contaminated barley plants are incubated for 48 hours at 20° C. and at 100% relative humidity, and then for 12 days at 20° C. at 70-80% relative humidity.
Grading (% of efficacy) is carried out 14 days after the contamination, in comparison with the control plants. plants.

[4] = tested on: Puccinia recondita; assay: In vivo preventive test on Puccinia recondita (brown rust on wheat); conditions: for Eff. %: wheat, spray, graded 12 days after contamination vs control plants
Description: In Vivo Preventive Test on Puccinia recondita (Brown Rust on Wheat) […] Wheat plants (“Scipion” variety), sown in starter cups on a 50/50 peat soil-pozzolana substrate and grown at 22° C., are treated at the 1-leaf stage (10 cm height) by spraying with the active ingredient prepared as described above. Plants, used as controls, are treated with the mixture of acetone/tween/DMSO/water not containing the active material. After 24 hours, the plants are contaminated by spraying the leaves with an aqueous suspension of Puccinia recondita spores (100 000 spores per ml). The spores are collected from an infected plant and are suspended in water containing 2.5 ml/1 of Tween 80 at 10%. The contaminated wheat plants are incubated for 24 hours at 20° C. and at 100% relative humidity, and then for 10 days at 20° C. and at 70-80% relative humidity. Grading (% of efficacy) is carried out 12 days after the contamination, in comparison with the control plants.

[5] = tested on: Uromyces appendiculatus; assay: In vivo preventive test on Uromyces appendiculatus (bean rust); conditions: preventive spray, bean plants, grading 11 days after contamination
Description: In Vivo Preventive Test on Uromyces appendiculatus (Bean Rust) […] Bean plants (“Saxa” variety), sown in starter cups on a 50/50 peat soil-pozzolana substrate and grown at 24° C., are treated at the 2-leaf stage (9 cm height) by spraying with the active ingredient prepared as described above. Plants, used as controls, are treated with the mixture of acetone/tween/DMSO/water not containing the active material. After 24 hours, the plants are contaminated by spraying the leaves with an aqueous suspension of Uromyces appendiculatus spores (150 000 spores per ml). The spores are collected from infected plants and are suspended in water containing 2.5 ml/1 of Tween 80 at 10%. The contaminated bean plants are incubated for 24 hours at 20° C. and at 100% relative humidity, and then for 10 days at 20° C. and at 70-80% relative humidity. Grading (% of efficacy) is carried out 11 days after the contamination, in comparison with the control plants.

[6] = log P by HPLC on reversed phase columns (EEC directive 79/831 Annex V.A8); type: physicochemical; conditions: Table 1, formula (I); HPLC/LC-MS at pH 2.7, 0.1% formic acid in water / acetonitrile, gradient 10% to 95%
[7] = tested on: Botrytis cinerea; assay: In vivo preventive test on Botrytis cinerea (grey mould), gherkin plants; conditions: for Eff. %: gherkin, spray, graded 4 to 5 days after contamination vs control plants
Description: In Vivo Preventive Test on Botrytis cinerea (Grey Mould)
(§2) The active ingredients tested are prepared by homogenization in a mixture of acetone/tween/DMSO and then diluted with water to obtain the desired active material concentration.
(§3) Gherkin plants (“Vert petit de Paris” variety), sown in starter cups on a 50/50 peat soil-pozzolana substrate and grown at 24° C., are treated at the Z11 cotyledon stage by spraying with the active ingredient prepared as described above. Plants, used as controls, are treated with the mixture of acetone/tween/DMSO/water not containing the active material.
After 24 hours, the plants are contaminated by spraying the cotyledons with an aqueous suspension of cryopreserved Botrytis cinerea spores (50 000 spores per ml). The spores are suspended in a nutrient solution composed of 10 g/L of PDB, 50 g/L of D-Fructose, 2 g/L of NH4NO3 and 1 g/L of KH2PO4. The contaminated gherkin plants are incubated at 17° C. and at 90% relative humidity.
Grading (% of efficacy) is carried out 4 to 5 days after the contamination, in comparison with the control plants.

[8] = tested on: Sphaerotheca fuliginea; assay: In vivo preventive test on Sphaerotheca fuliginea (powdery mildew on cucurbits); conditions: for Eff. %: preventive spray
Description: In Vivo Preventive Test on Sphaerotheca fuliginea (Powdery Mildew on Cucurbits)
as §2, §3
After 24 hours, the plants are contaminated by spraying the cotyledons with an aqueous suspension of Sphaerotheca fuliginea spores (100 000 spores per ml). The spores are collected from infected plants. The contaminated gherkin plants are incubated at about 20° C. and at 70-80% relative humidity.
Grading (% of efficacy) is carried out 12 days after the contamination, in comparison with the control plants.

[9] = 500 ppm, gherkin plants, grading 12 days after contamination
[10] = 100 ppm, gherkin plants, grading 12 days after contamination
[11] = dose 100 ppm of active ingredient, comparison with known compounds
[12] = dose 100 ppm, comparison with known compounds, same conditions

SMILES	Eff. % ([1]; dose 500 ppm)	Eff. % ([2]; 500 ppm)	Eff. % ([3]; dose 500 ppm)	Eff. % ([4]; dose 500 ppm)	Eff. % ([5]; 500 ppm)	logP^[a] [6]	Eff. % ([7]; dose 500 ppm)	Eff. % [8, 9]	also measured
CC1CCc2cccc(NC(=O)c3cccnc3C(F)F)c21 (racemic) [Example 4]	71%	100%	75%	97%	100%	2.63^[a]			
CC1OC(C)(C)c2cccc(NC(=O)c3cccnc3C(F)F)c21 (racemic) [Example 12]		96%	86%	100%	100%	2.11^[a]	100%		
CC(C)(C)C1CCc2c(NC(=O)c3cccnc3C(F)F)cccc21 (racemic) [Example 39]		86%	83%	98%	100%	3.78^[a]		94%	
CC1CC2(CC2)c2cccc(NC(=O)c3cccnc3C(F)F)c21 (racemic) [Example 42]	83%	79%		100%	100%	3.00^[a]	99%	89%	
CCCCON=C1CC(C)c2c(NC(=O)c3cccnc3C(F)F)cccc21 (racemic) [Example 51]	93%		83%	75%	70%	3.18^[a]			
CCON=C1CC(C)c2c(NC(=O)c3cccnc3C(F)F)cccc21 (racemic) [Example 52]	86%	86%	75%		93%	2.71^[a]			
CCC1(CC)OC(C(C)C)c2c(NC(=O)c3cccnc3C(F)F)cccc21 (racemic) [Example 56]	93%	93%	92%	88%	100%	3.64^[a]		98%	
CCC1(CC)CC(C)c2c(NC(=O)c3cccnc3C(F)F)cccc21 (racemic) [Example 78]						4.01^[a]			Eff. % ([1]; dose 100 ppm): 80%; Eff. % [8, 10]: 98%; Eff. % ([4]; dose 100 ppm): 100%; Eff. % ([5]; 100 ppm): 100%; Eff. % ([7]; dose 100 ppm): 98%
CC1CC(C)(C)c2cccc(NC(=O)c3ccccc3C(F)F)c21 (stereo not drawn) [2-(difluoromethyl)-N-(1,1,3-trimethyl-2,3-dihydro-1H-inden-4-yl)benzamide, reference compound]									protection (in words) [8, 11]: lower protection; Efficacy ([8]; dose 100 ppm, comparison with prior-art compounds, gherkin plants, grading 12 days after contamination): 0%; protection (in words) [3, 11]: lower protection; Efficacy [3, 12]: 0%; protection (in words) [4, 11]: low protection; Efficacy [4, 12]: 83%; protection (in words) [7, 11]: no protection at all; Efficacy [7, 12]: 0%
CC1CC(C)(C)c2c(F)ccc(NC(=O)c3cccnc3C(F)F)c21 (stereo not drawn) [Example 2]	98%	100%		100%	100%	3.35^[a]	97%	100%	
CC(C)C1c2cccc(NC(=O)c3cccnc3C(F)F)c2CC1C (stereo not drawn) [Example 27]		86%	83%	100%	100%	3.78^[a]	100%	100%	
CC1c2c(NC(=O)c3cccnc3C(F)F)cccc2C(C)(C)C1C (stereo not drawn) [Example 33]	100%	100%		100%	100%	3.48^[a]	97%	100%	
CC1Cc2c(NC(=O)c3cccnc3C(F)F)cccc2C1C (stereo not drawn) [Example 36]			75%	98%	100%	3.06^[a]			
CCC1Cc2c(NC(=S)c3cccnc3C(F)F)cccc2C1(C)C (stereo not drawn) [Example 69]						4.16^[a]			Eff. % [8, 10]: 100%; Eff. % ([2]; 100 ppm): 80%; Eff. % ([3]; dose 100 ppm): 70%; Eff. % ([4]; dose 100 ppm): 100%; Eff. % ([5]; 100 ppm): 100%
